Values quoted from earlier work in article PMC7113672 (Antiviral Research, 2014).

Legend:
SARS-CoV = conditions: in vivo
[1] = test system: influenza A/WSN/1933 (H1N1) virus
[2] = test system: other cysteine proteases such as the coronaviral main protease, cathepsins B, K, L, and S, and papain

SMILES	effect of combination on replication of MERS-CoV (MERS-CoV)	EC50 (MERS-CoV; read-out: EC50, inhibition of MERS-CoV replication) [nM]	efficacy against SARS-CoV (SARS-CoV)	selectivity index [1]	EC50 ([1]; read-out: EC50, protective effect against influenza A/WSN/1933 (H1N1) virus) [µM]	inhibition of other cysteine proteases [2]
COc1c(C)c2c(c(O)c1C/C=C(\C)CCC(=O)O)C(=O)OC2 [Mycophenolic acid]	synergistically inhibit	270	ineffective	–	–	–
Sc1ncnc2nc[nH]c12 [6MP, 6-Mercaptopurine]	–	–	–	4	26.5	do not inhibit
Nc1nc2nc[nH]c2c(=S)[nH]1 [6TG, 6-Thioguanine]	–	–	–	–	–	do not inhibit
